PubChem BioAssay (NCI)
Several values for one entry are separate records, joined by “and”; a condition that tells them apart may be missing. Equal entries are not always repeated.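 How tested: cells in 96-well plates exposed to compound for 48 hours at five concentrations. The concentration for 50% growth inhibition is given as GI50. TGI denotes the concentration required for complete inhibition of growth.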

Columns and labels:
Assay in all cases: inhibition of tumour cell growth, NCI panel, 48 h
[1] = tested on: ACHN renal
[2] = tested on: LOX IMVI melanoma
[3] = tested on: MCF7 breast
[4] = tested on: PC-3 prostate
[5] = tested on: RXF 393 renal
[6] = tested on: SNB-19 CNS
[7] = tested on: UACC-257 melanoma
[8] = tested on: UACC-62 melanoma
[9] = tested on: UO-31 renal
[10] = tested on: MDA-MB-435

Compound	GI50 [1]	TGI [1]	GI50 [2]	GI50 [3]	TGI [3]	GI50 [4]	TGI [4]	GI50 [5]	GI50 [6]	TGI [6]	TGI [7]	GI50 [8]	TGI [8]	GI50 [9]	TGI [9]	TGI [2]	GI50 [10]	TGI [10]	TGI [5]	GI50 [7]
CC(=O)O[C@H]1C(=O)[C@@]2(C)[C@H]([C@H](OC(=O)c3ccccc3)[C@]3([O-])C[C@H](OC(=O)[C@H]([O-])[C@@H](NC(=O)c4ccccc4)c4ccccc4)C(C)=C1C3(C)C)[C@]1(OC(C)=O)CO[C@@H]1C[C@@H]2[O-].[Fe+3]	2.48 µM and 2.96 µM	65 µM and > 100 µM	0.0219 µM and 0.107 µM	0.0226 µM and 0.0315 µM	65 µM and 32.7 µM	0.235 µM and 0.219 µM	65 µM and > 100 µM	0.117 µM and 0.0955 µM	0.281 µM and 0.534 µM	65 µM and > 100 µM	65 µM and > 100 µM	0.238 µM and 0.0875 µM	65 µM and 15.8 µM	4.45 µM and 4.87 µM	65 µM and > 100 µM	–	–	–	–	–
C=CC(=O)Nc1cccc(Nc2nc(Nc3ccc(OCCOC)cc3)ncc2F)c1	0.454 µM	2.84 µM	1.12 µM	2.54 µM	17.2 µM	2.92 µM	26.9 µM	0.387 µM	3.91 µM	37.4 µM	22.5 µM	1.93 µM	12.9 µM	0.549 µM	5.06 µM	3.62 µM	2.87 µM	15.7 µM	2.73 µM	6.4 µM
O=C(N/N=C/c1ccc(Cl)cc1Cl)c1ccccc1Nc1cccc(C(F)(F)F)c1	3.77 µM	16.5 µM	7.26 µM	11.3 µM	> 100 µM	2.4 µM	8.82 µM	2.24 µM	2.5 µM	6.93 µM	25.4 µM	13.3 µM	58.4 µM	3.14 µM	22.1 µM	63.7 µM	22.3 µM	> 100 µM	4.41 µM	4.27 µM
CC(=O)[CH-]C(C)=O.CC(=O)[CH-]C(C)=O.N=CC=N.[Sn+2]	3.2 µM	9.77 µM	1.57 µM	2.63 µM	12 µM	5.03 µM	17.6 µM	1.53 µM	14.6 µM	27.8 µM	15.9 µM	2.17 µM	5.85 µM	9 µM	21.1 µM	2.97 µM	2.59 µM	7.43 µM	3.34 µM	4.64 µM
CCCSc1cc(Cl)nc(N)n1	> 100 µM	> 100 µM	> 100 µM	> 100 µM	> 100 µM	> 100 µM	> 100 µM	> 100 µM	> 100 µM	> 100 µM	> 100 µM	> 100 µM	> 100 µM	71.5 µM	> 100 µM	> 100 µM	> 100 µM	> 100 µM	> 100 µM	> 100 µM
COc1ccc2c(c1)C=CC(C#N)N2C(=O)c1ccccc1 (centres undefined)	0.0411 µM	> 100 µM	< 0.01 µM	< 0.01 µM	> 100 µM	< 0.01 µM	> 100 µM	–	< 0.01 µM	> 100 µM	> 100 µM	< 0.01 µM	> 100 µM	< 0.01 µM	> 100 µM	> 100 µM	–	–	–	45.2 µM
CNC(=O)c1ccc(-c2cnc3ncc(Cc4ccc5ncccc5c4)n3n2)cc1F	> 100 µM	> 100 µM	> 100 µM	> 100 µM	> 100 µM	> 100 µM	> 100 µM	13.4 µM	> 100 µM	> 100 µM	> 100 µM	> 100 µM	> 100 µM	> 100 µM	> 100 µM	> 100 µM	> 100 µM	> 100 µM	> 100 µM	> 100 µM
CCN(Cc1c(F)cccc1F)c1ccc(CO)c(Cl)c1	20.8 µM	> 74.5 µM	17.4 µM	0.0488 µM	18.4 µM	12.6 µM	46.9 µM	1.14 µM	24.4 µM	> 100 µM	0.149 µM	0.0517 µM	0.325 µM	2.3 µM	51.4 µM	32.4 µM	14.8 µM	40.9 µM	24.2 µM	0.0389 µM
COc1cc(-c2cn(C)c(=O)c(C)c2C)cc(OC)c1CN1CC[C@H](N2CCN(c3ccc(N[C@H]4CCC(=O)NC4=O)cc3F)CC2)C(F)(F)C1	15.2 µM	28.8 µM	11.5 µM	3.16 µM	29.6 µM	11 µM	47.1 µM	11.1 µM	14.8 µM	31.6 µM	24.2 µM	–	–	4.56 µM	17.6 µM	24.9 µM	13.8 µM	30 µM	25 µM	10.5 µM
CC(=O)n1c(-c2ccc(Cl)cc2)nc2c(c1=O)C(c1ccc(Cl)cc1)c1sc3c(Cl)cccc3c1O2 (centres undefined)	1 µM	3.91 µM	0.59 µM	0.282 µM	1.47 µM	0.37 µM	2.69 µM	0.251 µM	0.469 µM	1.98 µM	3.9 µM	0.351 µM	1.6 µM	0.551 µM	2.2 µM	1.91 µM	0.167 µM	0.463 µM	0.85 µM	0.68 µM
CCn1c(-c2nonc2N)nc2ccc(F)cc21	> 25 µM	> 25 µM	> 25 µM	> 25 µM	> 25 µM	> 25 µM	> 25 µM	> 25 µM	> 25 µM	> 25 µM	> 25 µM	> 25 µM	> 25 µM	> 25 µM	> 25 µM	> 25 µM	> 25 µM	> 25 µM	> 25 µM	> 25 µM
CCCNCc1cc(C)cc2c1nc(N1CCNCC1)n2Cc1cc(C)c(F)c(C)c1	4.37 µM	15.5 µM	1.72 µM	2.25 µM	6.05 µM	2.49 µM	7.66 µM	–	2.41 µM	7.18 µM	–	1.87 µM	3.66 µM	13.2 µM	27.3 µM	3.22 µM	1.7 µM	3.21 µM	–	–
O=C(Nc1cc(-c2ccccc2)[nH]n1)c1ccc(Cl)cc1	5.27 µM	> 100 µM	9.23 µM	> 100 µM	> 100 µM	37.4 µM	> 100 µM	7.16 µM	74.2 µM	> 100 µM	> 100 µM	> 100 µM	> 100 µM	7.32 µM	> 100 µM	> 100 µM	–	–	> 100 µM	> 100 µM
O=P(O)(O)C(O)(Cn1ccnc1)P(=O)(O)O	> 46.2 µM	> 84.8 µM	> 47 µM	> 86.4 µM	> 100 µM	> 59.8 µM	> 100 µM	> 70.5 µM	> 81.2 µM	> 100 µM	> 100 µM	> 65.2 µM	> 100 µM	> 68.3 µM	> 100 µM	> 100 µM	> 100 µM	> 100 µM	> 100 µM	> 100 µM
C=C(C)[C@@H]1CC[C@@]2(C(=O)O)CC[C@]3(C)C(CCC4[C@@]5(C)CCC(OS(=O)(=O)c6ccccc6)C(C)(C)C5CC[C@]43C)C12 (some centres undefined)	4.42 µM	20.6 µM	5.99 µM	4.4 µM	19.6 µM	1.5 µM	35.8 µM	13.8 µM	10.1 µM	32.7 µM	39.6 µM	2.55 µM	19.3 µM	2.79 µM	15.9 µM	18.6 µM	4.49 µM	20.1 µM	29.7 µM	4.76 µM
Nc1ccc(SC23CC4CC(CC(C4)C2)C3)cc1	–	> 100 µM	–	–	> 100 µM	–	> 100 µM	–	–	> 100 µM	> 100 µM	–	> 100 µM	–	> 100 µM	> 100 µM	–	> 100 µM	> 100 µM	–
C=CCOc1c(Br)cc(Br)cc1Br	16.5 µM	> 100 µM	15.9 µM	9.32 µM	> 100 µM	68 µM	> 100 µM	19.3 µM	17.4 µM	> 100 µM	> 100 µM	4.8 µM	91.7 µM	2.82 µM	57.8 µM	> 100 µM	3.46 µM	66.1 µM	> 100 µM	57.6 µM
CN(C)c1nc(-c2cccs2)n2nc(-c3ccc(Cl)cc3)cc2n1	3.97 µM	> 100 µM	3.58 µM	> 100 µM	> 100 µM	–	–	3.39 µM	64.1 µM	> 100 µM	–	5.92 µM	> 100 µM	–	–	> 100 µM	–	–	> 100 µM	–
Oc1ccc(Cc2ccccc2)c2cccnc12	1.21 µM	9.53 µM	1.53 µM	7.46 µM	> 100 µM	2.7 µM	67.4 µM	2.3 µM	3.08 µM	> 100 µM	> 100 µM	2.32 µM	6.04 µM	0.628 µM	9.34 µM	19 µM	1.83 µM	> 100 µM	19.2 µM	4.06 µM
CC(C)(C)c1nc2c(o1)C(=Nc1ccc(F)cc1)c1ccccc1C2=O	–	32.1 µM	–	–	29.1 µM	–	> 100 µM	–	–	26.6 µM	8.41 µM	–	6.62 µM	–	28.1 µM	13 µM	–	3.76 µM	37.9 µM	–
CCCCCC(C(O)C#N)C(O)(C(F)(F)F)C(F)(F)F (centres undefined)	–	> 10 µM	–	–	> 10 µM	–	> 10 µM	–	–	> 10 µM	> 10 µM	–	> 10 µM	–	–	> 10 µM	–	> 10 µM	–	–
CCOC(=O)[C@@H](C)C[C@H](Cc1ccccc1)NC(=O)c1csc([C@@H](C[C@H](C(C)C)N(C)C(=O)[C@@H](NC(=O)[C@H]2CCCCN2C)C(C)(C)C)OC(C)=O)n1	< 0.00167 µM	> 16.7 µM	< 0.00167 µM	< 0.00167 µM	> 16.7 µM	< 0.00167 µM	> 16.7 µM	< 0.00167 µM	< 0.00167 µM	> 16.7 µM	–	< 0.00167 µM	> 16.7 µM	0.00297 µM	> 10.8 µM	> 16.7 µM	–	–	> 16.7 µM	–
Cc1ccc(C(=O)CC(Sc2cccc(Cl)c2Cl)c2ccc(Cl)cc2)cc1C (centres undefined)	–	–	13.5 µM	15.9 µM	36.1 µM	15.8 µM	29.2 µM	25.8 µM	27.5 µM	78.8 µM	48.6 µM	21.2 µM	57.6 µM	20 µM	40.9 µM	32.2 µM	20 µM	50 µM	56.9 µM	20.9 µM
COC(=O)NC/C=C\c1nc(CC/C=C\C(=O)OC2CC3CC(=O)O[C@@H](/C=C/CC(C)C)C[C@@H]4CCC(C)C(C[C@@H](OC)CC(C2)O3)O4)co1 (some centres undefined)	< 0.01 µM	> 100 µM	0.091 µM	< 0.01 µM	> 100 µM	< 0.01 µM	> 100 µM	–	34.4 µM	> 100 µM	> 100 µM	0.412 µM	25.6 µM	2.46 µM	74.7 µM	61.9 µM	< 0.01 µM	50.1 µM	–	> 100 µM
Oc1c2c(c(O)c3ccccc13)=N[C@@H](c1ccccc1)[C@H](c1ccccc1)N=2	–	> 100 µM	–	–	–	–	–	–	–	> 100 µM	> 100 µM	–	> 100 µM	–	> 100 µM	> 100 µM	–	–	> 100 µM	–
NC(N)=N/N=C/c1c(-c2ccccn2)nc2sc(Cl)cn12	7.49 µM	15.3 µM	7.26 µM	13.2 µM	50 µM	10.9 µM	22 µM	–	7.97 µM	16 µM	14.8 µM	8.01 µM	14.9 µM	7.85 µM	14.8 µM	14 µM	7.56 µM	14.2 µM	–	7.45 µM
O=c1c2ccccc2c2c3c1cccc3c1cccc3c(=O)c4ccccc4c2c31	–	> 100 µM	–	–	–	–	–	–	–	> 100 µM	> 100 µM	–	> 100 µM	–	> 100 µM	> 100 µM	–	–	> 100 µM	–
O=C(Nc1ccc(S(=O)(=O)N[C@@H](C(=O)O)c2ccccc2)cc1)c1ccc(F)cc1	–	> 100 µM	–	–	–	–	–	–	–	> 100 µM	> 100 µM	–	> 100 µM	–	> 100 µM	> 100 µM	–	–	> 100 µM	–
